In patent US8853258B2, “C-linked hydroxamic acid derivatives useful as antibacterial agents” (Pfizer Inc., priority 2009, dated 2014):
In brackets after ≈: the same amount, converted by molar mass. Read-outs that look alike come from different tables or passages of the source.

Columns and labels:
Type in all cases: cell-based
[1] = tested on: Acinetobacter baumanii/haemolyticus: Multidrug-resistant clinical isolate (AB-3167); assay: MIC determination (CLSI), AB-3167; details: for MIC: Acinetobacter baumannii
Outline: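 Multidrug-resistant clinical isolate AB-3167 (A. baumannii/haemolyticus) tested for minimum inhibitory concentration following CLSI dilution susceptibility standards M7-A7 and M100-S18.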

[2] = tested on: Escherichia coli EC-1: VOGEL, mouse virulent; assay: MIC determination (CLSI), EC-1; details: for MIC: Escherichia coli
Outline: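 E. coli Vogel, a mouse-virulent strain (EC-1), was tested. MICs were set by dilution susceptibility testing per CLSI standards M7-A7/M100-S18.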

[3] = tested on: Klebsiella pneumoniae: Ciprofloxacin-resistant isolate, ESBL, clinical isolate (KP-3700); assay: MIC determination (CLSI), KP-3700
Outline: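 MIC measured by broth dilution according to CLSI M7-A7 and M100-S18 standards. Test organism was a ciprofloxacin-resistant, ESBL-expressing clinical isolate.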

[4] = tested on: Pseudomonas aeruginosa UI-18: Wild-type (PA-7); assay: MIC determination (CLSI), PA-7; details: for MIC: Pseudomonas aeruginosa
Outline: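 MIC by dilution method per CLSI M7-A7 and M100-S18 guidelines. Strain: wild-type Pseudomonas aeruginosa UI-18.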

[5] = Acinetobacter baumanii/haemolyticus AB-3167
[6] = Pseudomonas aeruginosa UI-18 (PA-7)
[7] = Acinetobacter baumanii/haemolyticus multidrug-resistant clinical isolate AB-3167
[8] = Escherichia coli EC-1 VOGEL, mouse virulent
[9] = Pseudomonas aeruginosa UI-18 wild-type PA-7
[10] = Table 1, MIC, read-out: AB-3167 (MIC)
[11] = Table 1, MIC, read-out: PA-7 (MIC)

Row | SMILES | KP-3700 MIC [3] | AB-3167 MIC [1, 7] | EC-1 MIC [2, 8] | PA-7 MIC [4, 9] [µg/mL] | further results
1 | CC(CCc1ccc(-c2ccc(C[C@H](N)C(=O)O)cc2)cc1)(C(=O)NO)S(C)(=O)=O (stereo partly shown) [Example 231] | ≧64 mg/L |  |  |  | AB-3167 MIC [1, 5]: ≧64 mg/L; EC-1 MIC ([2]; Escherichia coli EC-1): 32 µg/mL; PA-7 MIC [4, 6]: 16 µg/mL
2 | Cc1cc(-c2ccc(CCC(C)(C(=O)NO)S(C)(=O)=O)cc2)ccc1CCO (stereo not shown) [Example 152] | 16 µg/mL | ≧64 mg/L | 4 µg/mL | 2 | 
3 | COc1ccc(-c2ccc(CCC(C)(C(=O)NO)S(C)(=O)=O)cc2)cc1C (racemic) [Example 67] | 8 µg/mL | ≧64 mg/L | 4 µg/mL | 16 | 
4 | CC(CCc1ccc(-c2ccc(O)cc2F)cc1)(C(=O)NO)S(C)(=O)=O (stereo not shown) [Example 149] | 8 µg/mL | ≧64 mg/L | 2 µg/mL | 1 | 
5 | CC(CCc1ccc(-c2ccc(S(C)(=O)=O)cc2)cc1)(C(=O)NO)S(C)(=O)=O (racemic) [Example 79] | ≧64 mg/L | ≧64 mg/L | 32 µg/mL | 4 | 
6 | COc1ncccc1-c1ccc(CCC(C)(C(=O)NO)S(C)(=O)=O)cc1 (racemic) [Example 76] | ≧64 mg/L | ≧64 mg/L | 32 µg/mL | 16 | 
7 | CC(CCc1ccc(-c2ccccc2)cn1)(C(=O)NO)S(C)(=O)=O (stereo not shown) [Example 4, N-Hydroxy-2-methyl-2-(methylsulfonyl)-4-(5-phenylpyridin-2-yl)butanamide] | ≧64 mg/L |  |  |  | MIC [1, 10]: ≥ 64 µg/mL; MIC ([2]; read-out: EC-1: (MIC)): 16 µg/mL (≈ 45.9 µM); MIC [4, 11]: 8 µg/mL (≈ 23 µM)
8 | CC(CCc1ccc(-c2ccoc2)cc1)(C(=O)NO)S(C)(=O)=O (stereo not shown) [Example 95] | 16 µg/mL | ≧64 mg/L | 16 µg/mL | 4 | 
9 | CC(CCc1ccc(-c2cnc(C#N)cn2)cc1)(C(=O)NO)S(C)(=O)=O (stereo not shown) [Example 130] | ≧64 mg/L | ≧64 mg/L | 16 µg/mL | 16 | 
10 | CC(CCc1ccc(-c2ccc(Cl)cc2Cl)cc1)(C(=O)NO)S(C)(=O)=O (racemic) [Example 70] | 2 µg/mL | 32 µg/mL | 1 µg/mL | 1 | 
11 | CC(CCc1ccc(-c2ccc(OCCO)c(F)c2)cc1)(C(=O)NO)S(C)(=O)=O (stereo not shown) [Example 145] | 4 µg/mL | ≧64 mg/L | 2 µg/mL | 1 | 
12 | CC(C)Oc1ccc(CCC(C)(C(=O)NO)S(C)(=O)=O)cc1 (stereo not shown) [Example 234, N-hydroxy-4-(4-isopropoxyphenyl)-2-methyl-2-(methylsulfonyl)butanamide] | ≧64 mg/L |  |  |  | MIC ([1]; Table 3, read-out: AB-3167 MIC): ≥ 64 µg/mL; MIC ([2]; read-out: EC-1 MIC): ≥ 64 µg/mL; MIC ([4]; Table 3, read-out: PA-7 MIC): 8 µg/mL (≈ 24.3 µM)
13 | CC(CCc1ccc(OCc2ccc3ccccc3n2)cc1)(C(=O)NO)S(C)(=O)=O (stereo not shown) [Example 279, N-hydroxy-2-methyl-2-(methylsulfonyl)-4-[4-(quinolin-2-ylmethoxy)phenyl]butanamide] | ≧64 mg/L |  |  |  | MIC ([1]; Table 3, read-out: AB-3167 MIC): ≥ 64 µg/mL; MIC ([2]; read-out: EC-1 MIC): 16 µg/mL (≈ 37.3 µM); MIC ([4]; Table 3, read-out: PA-7 MIC): ≥ 64 µg/mL
14 | Cc1cc(C)cc(-c2ccc(CCC(C)(C(=O)NO)S(C)(=O)=O)cc2)c1 (racemic) [Example 52] | 4 µg/mL | 8 µg/mL | 2 µg/mL | 2 | 
15 | CNC(=O)c1ccc(-c2ccc(CCC(C)(C(=O)NO)S(C)(=O)=O)cc2)cc1 (racemic) [Example 85] | ≧64 mg/L | ≧64 mg/L | 32 µg/mL | 16 | 
16 | CCOc1ccc(CCC(C)(C(=O)NO)S(C)(=O)=O)cc1 (stereo not shown) [Example 235, 4-(4-ethoxyphenyl)-N-hydroxy-2-methyl-2-(methylsulfonyl)butanamide] | ≧64 mg/L |  |  |  | MIC ([1]; Table 3, read-out: AB-3167 MIC): ≥ 64 µg/mL; MIC ([2]; read-out: EC-1 MIC): 32 µg/mL (≈ 101 µM); MIC ([4]; Table 3, read-out: PA-7 MIC): 16 µg/mL (≈ 50.7 µM)
17 | Cc1ncccc1COc1ccc(CCC(C)(C(=O)NO)S(C)(=O)=O)cc1 (stereo not shown) [Example 245, N-hydroxy-2-methyl-4-{4-[(2-methylpyridin-3-yl)methoxy]phenyl}-2-(methylsulfonyl)butanamide] | ≧64 mg/L |  |  |  | MIC ([1]; Table 3, read-out: AB-3167 MIC): ≥ 64 µg/mL; MIC ([2]; read-out: EC-1 MIC): ≥ 64 µg/mL; MIC ([4]; Table 3, read-out: PA-7 MIC): 32 µg/mL (≈ 81.5 µM)

Row | SMILES | KP-3700 MIC [3] | AB-3167 MIC [1, 7] | EC-1 MIC [2, 8] | PA-7 MIC [4, 9] [µg/mL] | further results
18 | COc1cc(O)ccc1-c1ccc(CCC(C)(C(=O)NO)S(C)(=O)=O)cc1 (stereo not shown) [Example 141] | ≧64 mg/L | ≧64 mg/L | ≧64 mg/L | 32 | 
19 | CC(CCc1ccc(OC2CCCC2)cc1)(C(=O)NO)S(C)(=O)=O (racemic) [Example 15, (+/−)-4-[4-(Cyclopentyloxy)phenyl]-N-hydroxy-2-methyl-2-(methylsulfonyl)butanamide] | ≧64 mg/L |  |  |  | MIC [1, 10]: 32 µg/mL (≈ 90 µM); MIC ([2]; read-out: EC-1: (MIC)): 16 µg/mL (≈ 45 µM); MIC [4, 11]: 4 µg/mL (≈ 11.3 µM)
20 | CS(=O)(=O)C(CCc1ccc(-c2ccccc2)cc1)C(=O)NO (stereo not shown) [Example 36] | 16 µg/mL | 32 µg/mL | 16 µg/mL | 2 | 
21 | CC(CCc1ccc(-c2cncnc2)cc1)(C(=O)NO)S(C)(=O)=O (racemic) [Example 80] | 32 µg/mL | ≧64 mg/L | 8 µg/mL | 8 | 
22 | CC(CCc1ccc(OCCC2CCCCC2)cc1)(C(=O)NO)S(C)(=O)=O (stereo not shown) [Example 314, 4-[4-(2-cyclohexylethoxy)phenyl]-N-hydroxy-2-methyl-2-(methylsulfonyl)butanamide] | ≧64 mg/L |  |  |  | MIC ([1]; Table 3, read-out: AB-3167 MIC): 2 µg/mL (≈ 5.03 µM); MIC ([2]; read-out: EC-1 MIC): 16 µg/mL (≈ 40.2 µM); MIC ([4]; Table 3, read-out: PA-7 MIC): 16 µg/mL (≈ 40.2 µM)
23 | CC(CCc1ccc(-c2ccccc2)nc1)(C(=O)NO)S(C)(=O)=O (stereo not shown) [Example 3, N-Hydroxy-2-methyl-2-(methylsulfonyl)-4-(6-phenylpyridin-3-yl)butanamide] | ≧64 mg/L |  |  |  | MIC [1, 10]: ≥ 64 µg/mL; MIC ([2]; read-out: EC-1: (MIC)): 16 µg/mL (≈ 45.9 µM); MIC [4, 11]: 16 µg/mL (≈ 45.9 µM)
24 | CCC(c1ccccc1)c1noc(COc2ccc(CCC(C)(C(=O)NO)S(C)(=O)=O)cc2)n1 (stereo not shown) [Example 240, N-hydroxy-2-methyl-2-(methylsulfonyl)-4-(4-{[3-(1-phenylpropyl)-1,2,4-oxadiazol-5-yl]methoxy}phenyl)butanamide] | ≧64 mg/L |  |  |  | MIC ([1]; Table 3, read-out: AB-3167 MIC): ≥ 64 µg/mL; MIC ([2]; read-out: EC-1 MIC): 32 µg/mL (≈ 65.6 µM); MIC ([4]; Table 3, read-out: PA-7 MIC): ≥ 64 µg/mL
25 | CC(CCc1ccc(-c2ccc(C#N)c(O)c2)cc1)(C(=O)NO)S(C)(=O)=O (stereo not shown) [Example 142] | ≧64 mg/L | ≧64 mg/L | ≧64 mg/L | 32 | 
26 | CC(CCc1ccc(OCc2nc(-c3cccc(F)c3)no2)cc1)(C(=O)NO)S(C)(=O)=O (stereo not shown) [Example 241, 4-(4-{[3-(3-fluorophenyl)-1,2,4-oxadiazol-5-yl]methoxy}phenyl)-N-hydroxy-2-methyl-2-(methylsulfonyl)butanamide] | ≧64 mg/L |  |  |  | MIC ([1]; Table 3, read-out: AB-3167 MIC): 16 µg/mL (≈ 34.5 µM); MIC ([2]; read-out: EC-1 MIC): 8 µg/mL (≈ 17.3 µM); MIC ([4]; Table 3, read-out: PA-7 MIC): 32 µg/mL (≈ 69 µM)
27 | CC(CCc1ccc(OCC2CC2)cc1)(C(=O)NO)S(C)(=O)=O (stereo not shown) [Example 246, 4-[4-(cyclopropylmethoxy)phenyl]-N-hydroxy-2-methyl-2-(methylsulfonyl)butanamide] | ≧64 mg/L |  |  |  | MIC ([1]; Table 3, read-out: AB-3167 MIC): ≥ 64 µg/mL; MIC ([2]; read-out: EC-1 MIC): 32 µg/mL (≈ 93.7 µM); MIC ([4]; Table 3, read-out: PA-7 MIC): ≥ 64 µg/mL
28 | CC(CCc1ccc(-c2ccc(C[C@@H](N)C(=O)O)cc2)cc1)(C(=O)NO)S(C)(=O)=O (stereo partly shown) [Example 232] | ≧64 mg/L |  |  |  | AB-3167 MIC [1, 5]: ≧64 mg/L; EC-1 MIC ([2]; Escherichia coli EC-1): ≧64 mg/L; PA-7 MIC [4, 6]: 32 µg/mL
29 | COc1cc(CCC(C)(C(=O)NO)S(C)(=O)=O)ccc1-c1ccc(F)cc1 (stereo not shown) [Example 20, 4-(4′-Fluoro-2-methoxybiphenyl-4-yl)-N-hydroxy-2-methyl-2-(methylsulfonyl)butanamide] | 8 µg/mL |  |  |  | MIC [1, 10]: ≥ 64 µg/mL; MIC ([2]; read-out: EC-1: (MIC)): 1 µg/mL (≈ 2.53 µM); MIC [4, 11]: 16 µg/mL (≈ 40.5 µM)
30 | CC(C)(O)c1ccccc1-c1ccc(CCC(C)(C(=O)NO)S(C)(=O)=O)cc1 (stereo not shown) [Example 153] | ≧64 mg/L | ≧64 mg/L | ≧64 mg/L | 32 | 
31 | Cc1cc(CCO)ccc1-c1ccc(CCC(C)(C(=O)NO)S(C)(=O)=O)cc1 (stereo not shown) [Example 156] | 8 µg/mL | 16 µg/mL | 16 µg/mL | 8 | 
32 | COc1ccc(-c2ccc(CCC(C)(C(=O)NO)S(C)(=O)=O)cc2)c(C)n1 (racemic) [Example 86] | 32 µg/mL | ≧64 mg/L | 8 µg/mL | 4 | 
33 | CC(CCc1ccc(OCc2nc3ccccc3s2)cc1)(C(=O)NO)S(C)(=O)=O (stereo not shown) [Example 277, 4-[4-(1,3-benzothiazol-2-ylmethoxy)phenyl]-N-hydroxy-2-methyl-2-(methylsulfonyl)butanamide] | 16 µg/mL |  |  |  | MIC ([1]; Table 3, read-out: AB-3167 MIC): ≥ 64 µg/mL; MIC ([2]; read-out: EC-1 MIC): 4 µg/mL (≈ 9.21 µM); MIC ([4]; Table 3, read-out: PA-7 MIC): 32 µg/mL (≈ 73.6 µM)
34 | CC(CCc1ccc(Br)cc1)(C(=O)NO)S(C)(=O)=O (stereo not shown) [Example 32] | ≧64 mg/L | ≧64 mg/L | 32 µg/mL | 32 | 
